Source: US20240423999A1 (priority 2021, published 2024)

Assays:
[1] = in vivo; cited from earlier work
mice = conditions: mouse, in vivo, po

Q: Which “value indicated for oral toxicity” value [1] does the source give for `O=S([O-])S(=O)[O-].[Na+].[Na+]` [sodium dithionite] here?
A: The value was 2500 mg/kg body weight.

Q: Which results are given for `[C-]#[O+]` [CO, carbon monoxide]?
A: behavioral recovery (mice): behavior recovered from being incapable of action; survival rate (mice): high
